Results on 13 molecules are retold here after US20190365719A1, “COMBINATION TREATMENTS OF HSP90 INHIBITORS FOR ENHANCING TUMOR IMMUNOGENICITY AND METHODS OF USE THEREOF” (Massachusetts Institute of Technology, priority 2018, published 2019).

The term IC50 denotes the concentration needed to halve the response being measured. One may read the Kd as the free concentration of one partner at which half of the binding sites on the other are occupied at equilibrium, for simple one-to-one binding. One may read the Ki as a measure of affinity in units of concentration, obtained from inhibition or displacement. For orientation: EC50 means the concentration at which the effect is half-maximal. Broadly, the aqueous solubility is the dissolved amount per volume that the medium holds.

In series [1] the test system is MC38 cells. Put plainly: Flow cytometry of MHC Class I H2-Kb surface expression on MC38 cells. It is filed as cell-based, mouse. The method, then:
For analysis of MHC Class I surface expression, cells were seeded into 12 well plates (125,000/well). 24-hours later, cells were treated with the indicated concentrations of HSP90i (NVP-HSP990) or DMSO vehicle. 72-hours after treatment, cells were dissociated with Accumax (Innovative Cell Technologies) and each treatment condition was distributed into 2 wells of a 96 well plate. […] After incubation with antibody, cells were washed 1× in ice cold PBS+10% FBS prior to analysis on a MACSQuant VYB flow cytometer. Cytometric data were plotted and analyzed with FloJo.
For analysis of MHC Class I surface expression, cells were seeded into 12 well plates (125,000/well). 24-hours later, cells were treated with the indicated concentrations of HSP90i (NVP-HSP990) or DMSO vehicle. 72-hours after treatment, cells were dissociated with Accumax (Innovative Cell Technologies) and each treatment condition was distributed into 2 wells of a 96 well plate. […] After incubation with antibody, cells were washed 1× in ice cold PBS+10% FBS prior to analysis on a LSR-2 flow cytometer. Cytometric data were plotted and analyzed with FloJo.

For series [2] the following is noted: cited from earlier work.
For series [3] the following is noted: cited from earlier work. The source holds these as a separate data set.
The next series relates to human HSP90. Particulars: cited from earlier work.
Another series relates to TMK-1 xenografts. The note with it: 5 mg/kg or 25 mg/kg thrice per week; cited from earlier work.
The subject of a further series is tumor growth. The note with it: 25 mg/kg three times a week; cited from earlier work.
A further series has as its system TCL1-SCID transplant. The note with it: 10 mg/kg for 16 days; cited from earlier work.
For series [4] the following is noted: relative to 17-AAG; cited from earlier work.
For series [5] the following is noted: mono-therapy, cited from earlier work.
The subject of a further series is A375 cells. Particulars: cited from earlier work.
For series [6], the target named is HSP90. The note with it: binding to HSP90, same site; cited from earlier work.
Series [7] concerns the target HSP90. The note with it: cited from earlier work.
Series [8] concerns HSP90. Particulars: cited from earlier work. This is another data set of the same source.
The conditions of series [9]: 10 mg/kg i.v., test animals; cited from earlier work.
Series [10] relates to A375 and A2780 xenografts. The note with it: 60 mg/kg i.v.; cited from earlier work.
The test system of series [11] is HSP90. Particulars: cited from earlier work. The source holds these as a separate data set.
Series [12] deals with refractory neuroendocrine tumors (NET)s. The note with it: 42-100 mg/m2 every other day; cited from earlier work.
Series [13] deals with M229R and 1205LuR xenografts. Particulars: cited from earlier work.
The subject of series [14] is MC38 cells. Briefly: Immunoblot analysis of MC38 cells. The note with it: Hsp90i 60 nM or IFN-γ 10 ng/mL. It is filed as cell-based, mouse. The method, then: Protein extraction was performed by washing cells 2× with PBS. A volume of lysis buffer (50 mM Tris pH 7.5, 150 mM NaCl, 1 mM EDTA, 1% Triton-X100, 0.1% SDS, 1× Halt Protease/Phosphatase inhibitor) equal to 1/10 the culture media volume was added directly to the culture dish and incubated for 2-3 min on ice. Lysates were then thoroughly scraped and pipetted into 1.5 mL tubes and incubated for an additional 30 min on ice. Lysates were then cleared by centrifugation at 14,000×g for 15 min and quantified using BCA Assay. Lysates were separated by SDS-PAGE and transferred to 0.2 μm nitrocellulose membranes prior to washing with PBST, blocking with 5% milk in PBST, and incubation with primary antibody overnight at 4° C. All primary antibodies were diluted 1:1000 in 2.5% milk in PBST. Membranes were then washed 4×5 min with PBST and incubated with HRP conjugated secondary antibody at a 1:10,000 dilution in 2.5% milk in PBST, and washed again 4×5 min with PBST. Detection of secondary antibody was performed with SuperSignal West Pico or Femto ECL reagents (Pierce) and digitally imaged on a ChemiDoc (BioRad).
Immunoblotting was performed as described in Example 4. Briefly, protein extraction was performed by washing cells with PBS and then isolating whole cell lysates in lysis buffer (50 mM Tris pH 7.5, 150 mM NaCl, 1 mM EDTA, 1% Triton-X100, 0.1% SDS, 1× Halt Protease/Phosphatase inhibitor) Lysates were then cleared by centrifugation and quantified using BCA Assay. Lysates were separated by SDS-PAGE and transferred to 0.2 μm nitrocellulose membranes prior to washing with PBST, blocking with 5% milk in PBST, and incubation with primary antibody overnight at 4° C. All primary antibodies were diluted 1:1000 in 2.5% milk in PBST. Membranes were then washed and incubated with HRP conjugated secondary antibody. Detection of secondary antibody was performed with SuperSignal West Pico or Femto ECL reagents (Pierce) and digitally imaged on a ChemiDoc (BioRad).
In general terms: In western blotting, separated proteins are transferred to a membrane and probed.

Where two headings read alike, the source gives them in different places.

For the molecule `COc1ccc(C[C@H](NC(=O)[C@H](C)NC(=O)CN2CCOCC2)C(=O)N[C@@H](Cc2ccccc2)C(=O)C2(C)CO2)cc1` (stereo in doubt) [ONX-0914], the “effect on HSP90i-caused increase in MHC Class I surface expression” value with MC38 cells [1] (ONX-0914 500 nM with low level HSP90i) is given as “abrogated the increase in MHC Class I surface expression”.

Consider `C=CCNC1=C2C[C@@H](C)C[C@H](OC)[C@H](O)[C@@H](C)/C=C(\C)[C@H](OC(N)=O)[C@@H](OC)/C=C\C=C(/C)C(=O)NC(=CC1=O)C2=O` [17-AAG, 17-Allylamino-17-demethoxy-geldanamycin], for which the “maximum tolerated dose (MTD)” value in series [2] (IV over 60 minutes on days 1, 4, 8 and 11 of each 21 day cycle) was 150 mg/m^2. Also, the “water solubility (in words)” value in series [3] is “not water-soluble”.

In the case of `CO[C@H]1/C=C\C=C(/C)C(=O)NC2=CC(=O)C(NCCN(C)C)=C(C[C@@H](C)C[C@H](OC)[C@H](O)[C@@H](C)/C=C(\C)[C@@H]1OC(N)=O)C2=O.Cl` [17-DMAG, 17-dimethylaminoethylamino-17-demethoxy-geldanamycin], in the series on human HSP90 (cell-free assay), the IC50 was 62 nM. For the same molecule, the “potency against human HSP90 as compared with 17-AAG” value in the series with human HSP90 was around 2 times. For the same molecule, the “tumor growth of TMK-1 xenografts” value in the series with TMK-1 xenografts is listed as “significantly reduces tumor growth”. In the series on tumor growth, the “tumor growth in mice” value was “significantly suppresses tumor growth”. Besides, in the series on TCL1-SCID transplant, the survival entry is listed as “prolongs the survival” and the “white blood cell count” value is “significantly decreases the white blood cell count”. In addition, the “plasma half-life, oral bioavailability, metabolism” value in series [4] is “longer plasma half-life, greater oral bioavailability, and less extensive metabolism”.

Regarding `CC(C)c1cc(C(=O)N2Cc3ccc(CN4CCN(C)CC4)cc3C2)c(O)cc1O` [AT13387], the tolerated dose is on record as at most 90 mg/kg in [5] (once weekly) and “up to 70 mg/kg” in series [5] (twice weekly). Moreover, in the series with A375 cells, the IC50 was 18 nM. In addition, the Kd at HSP90 [6] was 0.7 nM. Besides, the RP2D in [2] (six doses in a four-week schedule (day 1, 2, 8, 9, 15, 16)) was 160 mg/m2. For the same molecule, the R2PD in series [2] (twice weekly for 3 weeks in a 4-week regimen, diarrhea, nausea, vomiting, fatigue, systemic infusion reactions) is reported as 260 mg/m2. For the same molecule, the MTD in series [2] (twice weekly for 3 weeks in a 4-week regimen, visual disturbances) is 120 mg/m2.

As for `CCNC(=O)c1noc(-c2cc(C(C)C)c(O)cc2O)c1-c1ccc(CN2CCOCC2)cc1` [AUY922], the maximum tolerated dose in series [2] (once weekly intravenous infusion) was 70 mg/m^2.

For the molecule `COc1c(C)cnc(Cn2cnc3c(Cl)nc(N)nc32)c1C` [BIIB021], the MTD in series [2] (twice-weekly oral dosing schedule) is given as 800 mg. For the same molecule, the inhibition constant Ki on HSP90 [7] is […]. The 50% effective concentration (EC50) with HSP90 [8] was […].

In the case of `C=CCNc1c(O)cc2c(O)c1C[C@@H](C)C[C@H](OC)[C@H](O)[C@@H](C)/C=C(\C)[C@@H](OC(N)=O)[C@H](OC)/C=C\C=C(/C)C(=O)N2.Cl` [IPI-504], the “maximum tolerated dose (MTD) and recommended phase II dose (RP2D)” value in [2] (iv, in combination with docetaxel 75 mg/m^2 once every three weeks, phase Ib) is 450 mg/m^2. The “MTD from phase 1 trial” value in [2] (monotherapy, intravenous infusion over 30 minutes) is 225 mg/m^2. Also, the “on-treatment deaths, considered drug-related” value in series [2] (phase III trial, metastatic and/or unresectable GIST) is given as “four”. Besides, the aqueous solubility in series [3] is recorded as above 200 mg/mL.

As to `CN1CCC(NC(=O)c2cc(-c3c(O)cc(O)cc3Oc3ccc([N+](=O)[O-])cc3)on2)CC1` [NMS-E973], in series [9], the blood-brain barrier penetration result is “ability to cross the blood-brain barrier” and the pharmacokinetic profile result is recorded as “favorable pharmacokinetic profile”. The antitumor efficacy result in series [10] was “high antitumor efficacy”.

Turning to `CC(C)NCCCn1c(Sc2cc3c(cc2I)OCO3)nc2c(N)ncnc21` [PU-H71], the MTD in series [2] (intravenous (iv) infusion) is reported as 350-400 mg/m2. Further, in the series on HSP90 [11], the concentration for half-maximal inhibition (IC50) was […].

`CC1(C)CC(=O)c2c(C(F)(F)F)nn(-c3ccc(C(N)=O)c(N[C@H]4CC[C@H](O)CC4)c3)c2C1` [SNX-2112]: the “MHC-I surface expression on MC38 cells” value in the series with MC38 cells [1] (60 nM for each drug) is on record as “induced MHC-I”.

For the molecule `CC1(C)CC(=O)c2c(C(F)(F)F)nn(-c3ccc(C(N)=O)c(N[C@H]4CC[C@H](OC(=O)CN)CC4)c3)c2C1` [SNX-5422], the “patients achieving stable disease for >8 cycles” value in [12] is reported as 2 of 3. The MTD in series [2] (oral, pancreatic NETs and nonfunctional gastrointestinal and pulmonary NETs) was 75 mg/m^2.

For the molecule `CC[C@@H](C)Nc1cc(C(=O)NC2CC3CCC(C2)N3c2ccc(C(=O)C3CC3)cn2)c(C)cc1C(N)=O` (stereo partly drawn) [XL888], in series [13] (100 mg/kg, SCID mice), the “growth inhibition of established xenografts” value is 50%. The “increase in intratumoral HSP70 expression compared with controls” value in series [13] (15 days of treatment) was 8.6 fold.

B1: IFN-γ: cytokine, canonical stimulus of antigen presentation, comparator at 10 ng/mL (protein, UniProt P01580 23-155, looked up)
Interferon gamma: HGTVIESLESLNNYFNSSGIDVEEKSLFLDIWRNWQKDGDMKILQSQIISFYLRLFEVLKDNQAISNNISVIESHLITTFFSNSKAKKDAFMSIAKFEVNNPQVQRQAFNELIRVVHQLLPESSLRKRKRSRC
In the case of B1, the “expression of downstream markers of IFN-γ signaling (Stat1, Stat3, pStat3, PD-L1)” value in the series with MC38 cells [14] was “induced expression of downstream markers of IFN-γ signaling”.
